For one assay, the target named is T1, CDK2/Cyclin E1 (Homo sapiens, UniProt P24941).
T1 construct: NV2641; host or cells: HEK-293
Put plainly: NanoBRET cellular target engagement assay, CDK2/Cyclin E1 in HEK-293 cells. Type of assay: cell-based. Conditions: HEK-293 cells transfected with CDK2-NanoLuc and CCNE1; tracer K10 0.5 μM; 2 hrs. As for the experimental part: (§1) In the assay, HEK-293 cells were cultured to appropriate confluence before being transiently transfected with a mix of CDK2-NanoLuc® Fusion Vector (Promega, NV2781) and CCNE1 expression vector (Promega, NV2641) for CDK2 NanoBRET assays, or CDK1-NanoLuc® Fusion Vector (Promega, NV2701) and CCNB1 expression vector (Promega, NV2601) for CDK1 NanoBRET assay, by using lipid: DNA complexes formed with FuGENE HD transfection agent (Promega, E2311). The transfected cells were cultured overnight in 1% FBS Opti-MEM media to allow the expression to fully occur. Once the expression fully occurred, varying concentrations of the test compounds were added to the cells, before a cell-permeable, fluorescent tracer (tracer K10 from Promega, N2840) was added to achieve final tracer concentration of 0.5 μM. After the addition of Nano-Glo substrate (part of a kit, Promega, N2840) and Extracellular NanoLuc inhibitor (part of a kit, Promega, N2840) 2 hrs after tracer addition, the cellular engagement of the tracer and the competition with testing compounds to the target protein was assessed based on the resulting bioluminescence resonance energy transfer (BRET) signal. BRET ratio was generated by dividing the acceptor emission signal (610 nm) by the donor emission signal (450 nm) for each sample. […] All IC50 curves were calculated using a 4 parameter logistic nonlinear regression model.
(In general: Bioluminescence resonance energy transfer reports proximity on the nanometre scale.)

Another assay addresses T2, CDK1/Cyclin B (Homo sapiens, UniProt P06493).
T2 construct: NV2601; host or cells: HEK-293
Description: NanoBRET cellular target engagement assay, CDK1/Cyclin B in HEK-293 cells. The format is cell-based. Conditions: HEK-293 cells transfected with CDK1-NanoLuc and CCNB1; tracer K10 0.5 μM; 2 hrs. The method, then:
as §1

The text below walks through data of patent US20260217719A1, “CDK2 INHIBITORS” (BLUEPRINT MEDICINES CORPORATION, priority 2023, published 2026).

T2 sequence (P06493 whole entry): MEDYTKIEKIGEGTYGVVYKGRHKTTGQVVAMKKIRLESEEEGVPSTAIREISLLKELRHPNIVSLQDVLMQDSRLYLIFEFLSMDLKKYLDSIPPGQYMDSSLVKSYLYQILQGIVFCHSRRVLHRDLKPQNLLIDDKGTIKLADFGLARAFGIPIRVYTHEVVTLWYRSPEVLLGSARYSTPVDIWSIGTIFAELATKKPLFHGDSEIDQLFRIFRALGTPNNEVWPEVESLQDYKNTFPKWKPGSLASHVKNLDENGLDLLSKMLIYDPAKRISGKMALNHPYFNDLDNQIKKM
T2 sequence (P14635 whole entry partner): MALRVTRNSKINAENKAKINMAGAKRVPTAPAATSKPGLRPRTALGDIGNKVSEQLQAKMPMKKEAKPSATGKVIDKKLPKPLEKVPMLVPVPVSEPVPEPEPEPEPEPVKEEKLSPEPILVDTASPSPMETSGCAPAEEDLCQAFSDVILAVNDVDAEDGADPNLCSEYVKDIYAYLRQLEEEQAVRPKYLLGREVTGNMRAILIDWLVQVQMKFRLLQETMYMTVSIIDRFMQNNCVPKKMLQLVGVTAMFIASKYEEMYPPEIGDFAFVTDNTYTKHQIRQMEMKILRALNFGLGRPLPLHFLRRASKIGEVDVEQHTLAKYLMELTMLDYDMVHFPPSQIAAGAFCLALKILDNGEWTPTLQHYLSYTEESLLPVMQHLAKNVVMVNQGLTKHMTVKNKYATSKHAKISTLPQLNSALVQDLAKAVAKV

Turning to `c1cncc(Cn2ccc3ncc(Nc4cc([C@@H]5CCOC5)[nH]n4)nc32)c1` (single isomer, unassigned) [Example 17, (S)-5-(pyridin-3-ylmethyl)-N-(5-(tetrahydrofuran-3-yl)-1H-pyrazol-3-yl)-5H-pyrrolo[2,3-b]pyrazin-3-amine or (R)-5-(pyridin-3-ylmethyl)-N-(5-(tetrahydrofuran-3-yl)-1H-pyrazol-3-yl)-5H-pyrrolo[2,3-b]pyrazin-3-amine], the half-inhibitory concentration (IC50) (usually the concentration that gives 50% inhibition) amounted to 5.8 nM against CDK2/Cyclin E1 and 624 nM against CDK1/Cyclin B.
For `c1cnnc(Cn2ccc3ncc(Nc4cc([C@@H]5CCOC5)[nH]n4)nc32)c1` (single isomer, unassigned) [Example 25, (S)-5-(pyridazin-3-ylmethyl)-N-(5-(tetrahydrofuran-3-yl)-1H-pyrazol-3-yl)-5H-pyrrolo[2,3-b]pyrazin-3-amine or (R)-5-(pyridazin-3-ylmethyl)-N-(5-(tetrahydrofuran-3-yl)-1H-pyrazol-3-yl)-5H-pyrrolo[2,3-b]pyrazin-3-amine], in that order: 128 nM and 2780 nM.
The corresponding values for `FC(F)Oc1cc(Nc2cnc3ccn(CC4CCNCC4)c3n2)n[nH]1` [Example 7, N-(5-(difluoromethoxy)-1H-pyrazol-3-yl)-5-(piperidin-4-ylmethyl)-5H-pyrrolo[2,3-b]pyrazin-3-amine] are 1130 nM and above 10000 nM.
The corresponding values for `CN1CCC(Cn2ccc3ncc(Nc4cc(OC(F)F)[nH]n4)nc32)CC1` [Example 8, N-(5-(difluoromethoxy)-1H-pyrazol-3-yl)-5-((1-methylpiperidin-4-yl)methyl)-5H-pyrrolo[2,3-b]pyrazin-3-amine] are 162 nM and above 10000 nM.
With `FC(F)Oc1cc(Nc2cnc3ccn(C[C@H]4CCCNC4)c3n2)n[nH]1` [Example 9, (S)—N-(5-(difluoromethoxy)-1H-pyrazol-3-yl)-5-(piperidin-3-ylmethyl)-5H-pyrrolo[2,3-b]pyrazin-3-amine], the concentration for half-maximal inhibition (IC50) worked out at 4.9 nM against CDK2/Cyclin E1 and 1730 nM against CDK1/Cyclin B.
For `CN1CCC[C@H](Cn2ccc3ncc(Nc4cc(OC(F)F)[nH]n4)nc32)C1` [Example 10, (S)—N-(5-(difluoromethoxy)-1H-pyrazol-3-yl)-5-((1-methylpiperidin-3-yl)methyl)-5H-pyrrolo[2,3-b]pyrazin-3-amine], in that order: 6 nM and 3210 nM.
The corresponding values for `C[C@@H](C1CCOCC1)n1ccc2ncc(Nc3cc(OC(F)F)[nH]n3)nc21` [Example 11, (S)—N-(5-(difluoromethoxy)-1H-pyrazol-3-yl)-5-(1-(tetrahydro-2H-pyran-4-yl)ethyl)-5H-pyrrolo[2,3-b]pyrazin-3-amine] are 1.2 nM and 71.7 nM.
The corresponding values for `O[C@H]1CC[C@H](n2ccc3ncc(Nc4cc(OC(F)F)[nH]n4)nc32)CC1` [Example 12, (1r,4r)-4-(3-((5-(difluoromethoxy)-1H-pyrazol-3-yl)amino)-5H-pyrrolo[2,3-b]pyrazin-5-yl)cyclohexan-1-ol] are 1.1 nM and 347 nM.
For the compound `FC(F)Oc1cc(Nc2cnc3ccn(Cc4cccnn4)c3n2)n[nH]1` [Example 13, N-(5-(difluoromethoxy)-1H-pyrazol-3-yl)-5-(pyridazin-3-ylmethyl)-5H-pyrrolo[2,3-b]pyrazin-3-amine], the results for the IC50 against CDK2/Cyclin E1 and at CDK1/Cyclin B were 7.4 nM and 898 nM, respectively.
On to `OC1(Cn2ccc3ncc(Nc4cc(OC(F)F)[nH]n4)nc32)CCOCC1` [Example 14, 4-((3-((5-(difluoromethoxy)-1H-pyrazol-3-yl)amino)-5H-pyrrolo[2,3-b]pyrazin-5-yl)methyl)tetrahydro-2H-pyran-4-ol], for which the figures for the IC50 against CDK2/Cyclin E1 and against CDK1/Cyclin B were 137 nM and 325 nM, respectively.
On to `C[C@@H](CO)Cn1ccc2ncc(Nc3cc(OC(F)F)[nH]n3)nc21` [Example 15, (R)-3-(3-((5-(difluoromethoxy)-1H-pyrazol-3-yl)amino)-5H-pyrrolo[2,3-b]pyrazin-5-yl)-2-methylpropan-1-ol], for which the IC50 against CDK2/Cyclin E1 turned out to be 8.8 nM; on CDK1/Cyclin B, 7460 nM.
